Values after ≈ are worked out from the molar mass of the structure shown.
Legend:
Ehrlich = assay: Cytotoxicity against mouse EAC cells assessed as cell growth inhibition measured after 2 hrs by trypan blue exclusion assay; assay type: functional, cell-based
Bos taurus [1] = species: Bos taurus; assay: Ratio of IC50 for displacement of [3H]RO15-1788 from benzodiazepine receptor in bovine brain membranes in absence of GABA to IC50 for displacement of [3H]RO15-1788 from benzodiazepine receptor in bovine brain membranes in presence of GABA; assay type: cell membranes
[2] = Displacement of [3H]RO15-1788 from benzodiazepine receptor in bovine brain membranes; assay type: cell membranes, Bos taurus, Membrane
Bos taurus [3] = species: Bos taurus; assay: Displacement of [3H]RO15-1788 from benzodiazepine receptor in bovine brain membranes at 10 uM relative to control; assay type: cell membranes; settings: Membrane
Aspergillus fumigatus = assay: Antifungal activity against Aspergillus fumigatus RCMB 002006 assessed as zone of inhibition at 30 ug/ml; assay type: functional; settings: read-out: IZ
[4] = test system: Syncephalastrum racemosum; assay: Antifungal activity against Syncephalastrum racemosum 005004 assessed as zone of inhibition at 30 ug/ml; assay type: functional; settings: read-out: IZ
Geotrichum candidum = assay: Antifungal activity against Geotrichum candidum 052008 assessed as zone of inhibition at 30 ug/ml; assay type: functional; settings: read-out: IZ
Candida albicans [5] = assay: Antifungal activity against Candida albicans RCMB 0005003 assessed as zone of inhibition at 30 ug/ml; assay type: functional; settings: read-out: IZ
MCF7 = assay: Cytotoxicity against human MCF7 cells assessed as cell growth inhibition measured after 48 hrs by SRB assay; assay type: functional, cell-based; settings: MCF7, 48 h
A549 = assay: Cytotoxicity against human A549 cells assessed as cell growth inhibition measured after 48 hrs by SRB assay; assay type: functional, cell-based; settings: A549, 48 h
HepG2 = assay: Cytotoxicity against human HepG2 cells assessed as cell growth inhibition measured after 48 hrs by SRB assay; assay type: functional, cell-based; settings: HepG2, 48 h
Escherichia coli [6] = assay: Antibacterial activity against Escherichia coli RCMB 000106 assessed as zone of inhibition at 30 ug/ml; assay type: functional; settings: read-out: IZ
Bacillus subtilis [7] = assay: Antibacterial activity against Bacillus subtilis RCMB 000109 assessed as zone of inhibition at 30 ug/ml; assay type: functional; settings: read-out: IZ
Staphylococcus aureus [8] = assay: Antibacterial activity against Staphylococcus aureus RCMB 000108 assessed as zone of inhibition at 30 ug/ml; assay type: functional; settings: read-out: IZ
Pseudomonas aeruginosa = assay: Antibacterial activity against Pseudomonas aeruginosa RCMB 000103 assessed as zone of inhibition at 30 ug/ml; assay type: functional; settings: read-out: IZ
[9] = molecular target: T1, Estrogen receptor (Homo sapiens) (UniProt P03372); assay: Displacement of [3H]E2 from ERalpha (unknown origin) by radiometric assay relative to estradiol
T1 sequence (whole entry): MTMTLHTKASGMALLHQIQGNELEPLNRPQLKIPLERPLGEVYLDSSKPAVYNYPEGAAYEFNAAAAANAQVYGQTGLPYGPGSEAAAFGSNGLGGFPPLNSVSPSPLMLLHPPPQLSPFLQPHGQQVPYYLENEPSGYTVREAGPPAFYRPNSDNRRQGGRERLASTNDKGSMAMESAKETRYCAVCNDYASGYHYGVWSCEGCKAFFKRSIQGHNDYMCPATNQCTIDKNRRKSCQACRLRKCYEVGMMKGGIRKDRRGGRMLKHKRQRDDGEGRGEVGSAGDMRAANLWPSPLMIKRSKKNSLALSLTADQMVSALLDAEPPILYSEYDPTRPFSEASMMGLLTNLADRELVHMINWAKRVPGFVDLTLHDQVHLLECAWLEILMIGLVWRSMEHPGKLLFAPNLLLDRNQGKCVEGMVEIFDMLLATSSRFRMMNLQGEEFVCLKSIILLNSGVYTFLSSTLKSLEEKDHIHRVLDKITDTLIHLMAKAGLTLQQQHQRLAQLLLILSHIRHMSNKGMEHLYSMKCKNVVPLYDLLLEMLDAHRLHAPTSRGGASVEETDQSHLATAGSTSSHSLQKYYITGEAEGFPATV

[10] = molecular target: Estrogen receptor beta (Homo sapiens) (UniProt Q92731); assay: Displacement of [3H]E2 from ERbeta (unknown origin) by radiometric assay relative to estradiol
Aspergillus flavus = assay: Antifungal activity against Aspergillus flavus MTCC 3008 assessed as zone of inhibition at 25 to 150 ug/ml measured after 24 to 48 hrs by agar well diffusion method; assay type: functional
Candida albicans [11] = assay: Antifungal activity against Candida albicans MTCC 227 assessed as zone of inhibition at 25 to 150 ug/ml measured after 24 to 48 hrs by agar well diffusion method; assay type: functional
Staphylococcus aureus [12] = assay: Antibacterial activity against Staphylococcus aureus MTCC 96 assessed as zone of inhibition at 25 to 150 ug/ml measured after 24 hrs by agar well diffusion method; assay type: functional
Bacillus subtilis [13] = assay: Antibacterial activity against Bacillus subtilis MTCC 441 assessed as zone of inhibition at 25 to 150 ug/ml measured after 24 hrs by agar well diffusion method; assay type: functional
Aspergillus niger = assay: Antifungal activity against Aspergillus niger assessed as zone of inhibition at 25 to 150 ug/ml measured after 24 to 48 hrs by agar well diffusion method; assay type: functional
Escherichia coli [14] = assay: Antibacterial activity against Escherichia coli MTCC 443 assessed as zone of inhibition at 25 to 150 ug/ml measured after 24 hrs by agar well diffusion method; assay type: functional
Penicillium chrysogenum = assay: Antifungal activity against Penicillium chrysogenum MTCC 160 assessed as zone of inhibition at 25 to 150 ug/ml measured after 24 to 48 hrs by agar well diffusion method; assay type: functional
Salmonella typhi = assay: Antibacterial activity against Salmonella typhi MTCC 98 assessed as zone of inhibition at 25 to 150 ug/ml measured after 24 hrs by agar well diffusion method; assay type: functional, Salmonella enterica subsp. enterica serovar Typhi
Oryctolagus cuniculus [15] = species: Oryctolagus cuniculus; assay: Potency index, ratio of theophylline IC50 to compound IC50 for inhibition of PDE in rabbit kidney homogenates using [8-3H]cAMP as substrate measured 3 times between 3 to 12 mins; assay type: tissue-based
Oryctolagus cuniculus [16] = species: Oryctolagus cuniculus; assay: Potency index, ratio of theophylline IC50 to compound IC50 for inhibition of PDE in rabbit lung homogenates using [8-3H]cAMP as substrate measured 3 times between 3 to 12 mins; assay type: tissue-based
Sus scrofa = species: Sus scrofa; assay: Inhibition of PDE in pig blood assessed as suppression of ADP-induced platelet aggregation at 50 ug/ml by turbidimetric method relative to control
Bel-7402 = assay: Antiproliferative activity against human Bel7402 cells measured after 24 hrs by MTT assay; assay type: functional, cell-based; settings: Bel-7402, 24 h
HT-1080 = assay: Antiproliferative activity against human HT1080 cells measured after 24 hrs by MTT assay; assay type: functional, cell-based; settings: HT-1080, 24 h

Chain of Estrogen receptor beta (Homo sapiens) (Q92731 whole entry, the tested form may be a part): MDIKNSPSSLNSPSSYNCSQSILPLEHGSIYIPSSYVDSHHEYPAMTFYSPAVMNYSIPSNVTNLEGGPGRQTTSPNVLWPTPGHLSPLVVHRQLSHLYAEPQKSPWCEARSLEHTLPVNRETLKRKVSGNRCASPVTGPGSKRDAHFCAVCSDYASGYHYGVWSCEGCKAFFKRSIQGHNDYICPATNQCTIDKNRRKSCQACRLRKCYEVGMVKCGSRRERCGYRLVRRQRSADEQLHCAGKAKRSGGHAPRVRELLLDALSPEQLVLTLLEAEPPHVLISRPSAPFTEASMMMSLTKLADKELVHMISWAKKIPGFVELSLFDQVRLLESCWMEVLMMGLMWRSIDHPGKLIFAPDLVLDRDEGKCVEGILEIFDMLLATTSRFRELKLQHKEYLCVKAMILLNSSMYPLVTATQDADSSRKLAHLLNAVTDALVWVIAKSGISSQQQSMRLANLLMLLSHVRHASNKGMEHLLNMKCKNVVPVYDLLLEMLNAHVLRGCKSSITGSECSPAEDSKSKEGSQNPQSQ

Structure (SMILES): COc1ccc(Cc2nn3c(-c4ccc(OC)cc4)c(C#N)c(N)nc3c2C(=O)Nc2ccc(Cl)cc2)cc1
- IC50 (Ehrlich): 25 µg/mL (≈ 46.4 µM)

Structure (SMILES): O=c1c(-c2ccsc2)c[nH]c2c(-c3ccsc3)cnn12
- Ratio IC50 (Bos taurus [1]): 1.3
- Ki [2]: 0.0163 µM
- inhibition (Bos taurus [3]): 100%

Structure (SMILES): CCC(C)n1ncn(-c2ccc(N3CCN(c4ccc(OCC5COC(Cn6cncn6)(c6ccc(Cl)cc6Cl)O5)cc4)CC3)cc2)c1=O (stereo not drawn) [ITRACONAZOLE]
- zone of inhibition at 30 µg/mL (Aspergillus fumigatus): 27.4 mm
- zone of inhibition at 30 µg/mL [4]: 23.9 mm
- zone of inhibition at 30 µg/mL (Geotrichum candidum): 24.2 mm
- zone of inhibition at 30 µg/mL (Candida albicans [5]): 25.2 mm

Structure (SMILES): Clc1ccccc1C(c1ccccc1)(c1ccccc1)n1ccnc1 [CLOTRIMAZOLE]
- zone of inhibition at 30 µg/mL (Aspergillus fumigatus): 26.3 mm
- zone of inhibition at 30 µg/mL [4]: 21.4 mm
- zone of inhibition at 30 µg/mL (Geotrichum candidum): 23.2 mm
- zone of inhibition at 30 µg/mL (Candida albicans [5]): 20.8 mm

Structure (SMILES): COc1ccc(Nc2nn3c(O)cc(C)nc3c2C(=O)Nc2ccc(Cl)cc2)cc1
- IC50 (MCF7): 4.2 µg/mL (≈ 9.91 µM)
- IC50 (A549): 5.45 µg/mL (≈ 12.9 µM)
- IC50 (HepG2): 6.1 µg/mL (≈ 14.4 µM)

Structure (SMILES): CC1(C)S[C@@H]2[C@H](NC(=O)Cc3ccccc3)C(=O)N2[C@H]1C(=O)O [PENICILLIN G]
- zone of inhibition at 30 µg/mL (Escherichia coli [6]): 33.1 mm
- zone of inhibition at 30 µg/mL (Bacillus subtilis [7]): 31.6 mm
- zone of inhibition at 30 µg/mL (Staphylococcus aureus [8]): 30.1 mm
- zone of inhibition at 30 µg/mL (Pseudomonas aeruginosa): 28.3 mm

Structure (SMILES): Oc1ccc(-c2c(-c3ccccc3)nn3cccnc23)cc1
- relative binding affinity (RBA) [9]: 0.007
- relative binding affinity (RBA) [10]: 0.023

Structure (SMILES): CN[C@@H]1[C@H](O[C@H]2[C@H](O[C@H]3[C@H](O)[C@@H](O)[C@H](N=C(N)N)[C@@H](O)[C@@H]3N=C(N)N)O[C@@H](C)[C@]2(O)C=O)O[C@@H](CO)[C@H](O)[C@H]1O [STREPTOMYCIN]
- zone of inhibition at 30 µg/mL (Escherichia coli [6]): 29.7 mm
- zone of inhibition at 30 µg/mL (Bacillus subtilis [7]): 29.7 mm
- zone of inhibition at 30 µg/mL (Staphylococcus aureus [8]): 28.1 mm
- zone of inhibition at 30 µg/mL (Pseudomonas aeruginosa): 25.2 mm

Structure (SMILES): Cc1cc(O)c(-c2cc(-c3c(C)nn(-c4ccccc4)c3Cl)n3nc(N)c(/N=N/c4ccc(Cl)cc4)c3n2)cc1Cl
- inhibition zone (IZ) (Aspergillus flavus): 10 mm
- inhibition zone (IZ) (Candida albicans [11]): 20 mm
- inhibition zone (IZ) (Staphylococcus aureus [12]): 14 mm
- inhibition zone (IZ) (Bacillus subtilis [13]): 18 mm
- inhibition zone (IZ) (Aspergillus niger): 16 mm
- inhibition zone (IZ) (Escherichia coli [14]): 16 mm
- inhibition zone (IZ) (Penicillium chrysogenum): 19 mm

Structure (SMILES): Cc1ccc(-c2cc(-c3c(C)nn(-c4ccccc4)c3Cl)n3nc(N)c(/N=N/c4ccc(Cl)cc4)c3n2)c(O)c1Br
- inhibition zone (IZ) (Salmonella typhi): 30 mm
- inhibition zone (IZ) (Aspergillus flavus): 17 mm
- inhibition zone (IZ) (Candida albicans [11]): 15 mm
- inhibition zone (IZ) (Staphylococcus aureus [12]): 10 mm
- inhibition zone (IZ) (Aspergillus niger): 14 mm
- inhibition zone (IZ) (Escherichia coli [14]): 19 mm
- inhibition zone (IZ) (Penicillium chrysogenum): 16 mm

Structure (SMILES): CCOC(=O)c1cnc2c(Br)cnn2c1O
- Ratio IC50 (Oryctolagus cuniculus [15]): 1
- Ratio IC50 (Oryctolagus cuniculus [16]): 0.5
- inhibition (Sus scrofa): 34%

Structure (SMILES): Cc1nn(-c2ccccc2)c(Cl)c1-c1cc(-c2cc(Cl)ccc2O)nc2c(/N=N/c3ccc(Cl)cc3)c(N)nn12
- inhibition zone (IZ) (Salmonella typhi): 15 mm
- inhibition zone (IZ) (Candida albicans [11]): 11 mm
- inhibition zone (IZ) (Staphylococcus aureus [12]): 15 mm
- inhibition zone (IZ) (Bacillus subtilis [13]): 12 mm
- inhibition zone (IZ) (Aspergillus niger): 20 mm
- inhibition zone (IZ) (Escherichia coli [14]): 18 mm
- inhibition zone (IZ) (Penicillium chrysogenum): 13 mm

Structure (SMILES): Cc1nn(-c2ccccc2)c(Cl)c1-c1cc(-c2cc(Cl)cc(Cl)c2O)nc2c(/N=N/c3ccc(Cl)cc3)c(N)nn12
- inhibition zone (IZ) (Salmonella typhi): 24 mm
- inhibition zone (IZ) (Aspergillus flavus): 21 mm
- inhibition zone (IZ) (Candida albicans [11]): 17 mm
- inhibition zone (IZ) (Bacillus subtilis [13]): 16 mm
- inhibition zone (IZ) (Aspergillus niger): 18 mm
- inhibition zone (IZ) (Escherichia coli [14]): 26 mm
- inhibition zone (IZ) (Penicillium chrysogenum): 24 mm

Structure (SMILES): N#Cc1cnn2c(Nc3cc(C(F)(F)F)cc(C(F)(F)F)c3)cc(COCCN3CCCCC3)nc12
- IC50 (Bel-7402): 13.7 µM
- IC50 (HT-1080): 17.6 µM

From ChEMBL document CHEMBL3994587, “An insight on synthetic and medicinal aspects of pyrazolo[1,5-a]pyrimidine scaffold” (Eur J Med Chem, 2017)
